In patent publication US20060258755A1, “Preparation of sevoflurane with negligible water content” (priority 2005, published 2006):

Experiments:
Format in all cases: physicochemical
[1] = Storage stability of sevoflurane in Type III glass bottle (gas chromatography, Karl Fischer)
Experimental: In one experiment initiated in August 2000, sevoflurane (Abbott Laboratories, Lot #61-339-DK, Expiration Date Aug. 1, 2001) was dried to 0 ppm water content using Type 3A molecular sieve. Drying was performed by mixing the sevoflurane with molecular sieves and then allowing these materials to stand together for several hours. The water content was determined by Karl Fischer analysis. A sample of the dried sevoflurane was placed in a new amber Type III glass bottle, which had been dried at 100° C. for 2 hours. The bottle was sealed with a black phenolic/urea resin cap and a polyseal liner of polyethylene resin and shrink-wrapped or wrapped with Teflon® tape and shrink-wrapped. The sample was then held at room temperature (25-27° C.) and at ambient relative humidity. […] One undried lot of sevoflurane from Abbott Laboratories (Lot #0 335 70 K, Expiration Date Apr. 1, 1997, stored in a Type III bottle) was analyzed in May and October 2000. This sevoflurane was 97 ppm H2O and 99.9916% sevoflurane by gas chromatography.

[2] = Storage stability of sevoflurane in the presence of iron oxide (Fe2O3, a Lewis acid)
Experimental: A sample of sevoflurane containing 30 ppm of water and 0.05 g Fe2O3 (iron oxide) was placed in a new Type III amber glass bottle in July 2000 and sealed as previously described. […] This sample was sealed in September 2000 in a new Type III glass bottle as previously described and stored at 40° C. for four weeks.

[3] = Stability trial of sevoflurane dried over Type 3A molecular sieve, packaged in glass bottles or epoxy-lined drums; conditions: for decomposition / % sevoflurane by gas chromatography: dried to 0 ppm water, 30 days at 40° C. and 75% relative humidity; for % sevoflurane by gas chromatography: initial 99.99%
Experimental: (§1) Sevoflurane (99.99%, produced January 2005) was dried over Type 3A molecular sieve using a continuous flow bed apparatus to a water-composition of 0.0 wt % (or 0 ppm) as measured by Karl Fischer. 100 ml of sevoflurane was packaged into a Type III amber glass bottle and sealed for a 30-day stability trial at 40° C. and 75% relative humidity. At the end of this time, the sevoflurane was 99.99% as determined by gas chromatography.
as §1, with “water composition” for “water-composition”, “250” for “100”
Sevoflurane (99.99%, produced January 2005) was dried over Type 3A molecular sieve using a continuous flow bed apparatus to a water composition of 0.0 wt % (or 0 ppm) as measured by Karl Fischer. 28.1 kg of sevoflurane was packaged in a five-gallon epoxy-lined drum and sealed for a 30-day stability trial at 40° C. and 75% relative humidity. At the end of this time, the % sevoflurane was 99.99% as determined by gas chromatography.
Purified Sevoflurane was dried over Type 3A molecular sieve using a continuous flow bed apparatus to negligible or near-negligible water compositions as measured by Karl Fischer. The dried material was packaged into 100 mL or 250 mL Type III amber glass bottles or into 5 gal epoxy-lined drums and subsequently stored as part of a stability trial under controlled or ambient conditions.
The sevoflurane used in examples 8-11 was produced by the method described in pending U.S. patent application Ser. No. 11/281,293, filed Nov. 17, 2005, the disclosure of which is incorporated herein by reference.

[4] = Water saturation limit of sevoflurane; conditions: second sample of Example 4 (28 g)
Experimental: Currently available processes for the preparation of sevoflurane generally give a product containing dissolved water up to 0.12 to 0.14 wt %, or 1200 to 1400 ppm, the approximate water saturation limit of sevoflurane. […] This sample was sealed in September 2000 in a new Type III glass bottle as previously described and stored at 40° C. for four weeks.

[5] = Storage stability of sevoflurane stored with Type 3A molecular sieve in Type III glass
Excerpt: Another sample of sevoflurane (40 g) was stored with 2 g of Type 3A molecular sieve (an alumino silicate that contains Al2O3, identified as a Lewis acid in the '176 patent) in July 2000. This sample was in a new Type III glass container for six months at ambient temperatures.
Starting in July 2000, 40 g of sevoflurane (Abbott Laboratories Lot # 35-621 -DK-03) was stored in the presence of 2 g of Type 3A molecular sieve for 20 months in a dried, new Type III amber glass bottle at room temperature. The initial water content was 218 ppm and was essentially zero after 16 hours of contact with the molecular sieve (as determined by Karl Fischer, a method known to those skilled in the art with a detection limit of about 1 ppm or less).
Starting in July 2000, a sample of sevoflurane (from the lot described in Example 1) was held at room temperature (25-27° C.) over Type 3A molecular sieve for two-and-a-half months in a dried, new Type III amber glass bottle.

[6] = undried Abbott Lot #0 335 70 K, 97 ppm H2O, Type III bottle, ambient temperature for about five years
[7] = 28 g saturated with water (1235 ppm), 0.07 g Fe2O3, new Type III glass bottle, 40° C. for four weeks
[8] = 30 ppm water, 0.05 g Fe2O3, new Type III amber glass bottle, four weeks at 40° C.
[9] = 5 gal epoxy-lined drum, Mfg. April 2005, initial water 6 ppm, 60 days, 40 C./75% RH
[10] = 5 gal epoxy-lined drum, Mfg. April 2005, initial water 10 ppm, 9 months, Ambient
[11] = 5 gal epoxy-lined drum, Mfg. February 2005, initial water 0 ppm, 12 months, 40 C./75% RH
[12] = 5 gal epoxy-lined drum, Mfg. February 2005, initial water 0 ppm, 12 months, Ambient
[13] = 5 gal epoxy-lined drum, Mfg. January 2005, initial water 0 ppm, 6 months, 40 C./75% RH
[14] = 5 gal epoxy-lined drum, Mfg. January 2005, initial water 0 ppm, 90 days, Ambient
[15] = 100 mL Type III amber glass bottle, Mfg. February 2005, initial water 0 ppm, 9 months, 25 C./60% RH
[16] = 100 mL Type III amber glass bottle, Mfg. February 2005, initial water 0 ppm, 60 days, 40 C./75% RH
[17] = 250 mL Type III amber glass bottle, Mfg. April 2005, initial water 5 ppm, 6 months, 25 C./60% RH
[18] = 250 mL Type III amber glass bottle, Mfg. April 2005, initial water 5 ppm, 90 days, 40 C./75% RH
[19] = 250 mL Type III amber glass bottle, Mfg. February 2005, initial water 0 ppm, 9 months, 25 C./60% RH
[20] = 250 mL Type III amber glass bottle, Mfg. February 2005, initial water 0 ppm, 60 days, 40 C./75% RH
[21] = 250 mL Type III amber glass bottle, Mfg. January 2005, initial water 0 ppm, 12 months, 25 C./60% RH
[22] = 28.1 kg in five-gallon epoxy-lined drum
[23] = 100 ml in Type III amber glass bottle
[24] = 250 ml in Type III amber glass bottle
[25] = 40 g with 2 g Type 3A molecular sieve, new Type III glass container, six months at ambient temperatures
[26] = lot of Example 1 over Type 3A molecular sieve, dried, new Type III amber glass bottle, room temperature (25-27° C.), two-and-a-half months

For `FCOC(C(F)(F)F)C(F)(F)F` [sevoflurane, 1,1,1,3,3,3-hexafluoroisopropyl fluoromethyl ether], the “% sevoflurane by gas chromatography” value ([1]; Abbott Lot #61-339-DK dried to 0 ppm water with Type 3A molecular sieve, new amber Type III glass bottle, room temperature (25-27° C.), ambient relative humidity, four weeks) was 99.998%, the “water (Karl Fischer analysis) at end of stability run” value ([1]; Abbott Lot #61-339-DK dried to 0 ppm water, new amber Type III glass bottle, room temperature (25-27° C.), ambient relative humidity, four weeks) was 68 ppm and the decomposition ([1]; Abbott Lot #61-339-DK dried to 0 ppm water, new amber Type III glass bottle, room temperature (25-27° C.), four weeks) was “no decomposition”. The “% sevoflurane by gas chromatography” value [1, 6] was 99.9916%, the decomposition [1, 6] was “without decomposition” and the decomposition [2, 7] was “no decomposition”. The “purity by gas chromatography” value [2, 7] was 99.97%, the “% (CF3)2CHOCH2OCH(CF3)2 decomposition product by gas chromatographic analyses” value [2, 8] was 6.33% and the “% (CF3)2CHOH decomposition product by gas chromatographic analyses” value [2, 8] was 0.49%. The “% sevoflurane by gas chromatographic analyses” value [2, 8] was 90.7%, the “Final Comp.” value [3, 9] was 99.998% and the “Result (decomposition)” value [3, 9] was “No”. For the same molecule, the “Final Comp.” value [3, 10] was 99.998%, the “Result (decomposition)” value [3, 10] was “No” and the “Final Comp.” value [3, 11] was 99.98%. For the same molecule, the “Result (decomposition)” value [3, 11] was “No”, the “Final Comp.” value [3, 12] was 99.98% and the “Result (decomposition)” value [3, 12] was “No”. The “Final Comp.” value [3, 13] was 99.98%, the “Result (decomposition)” value [3, 13] was “No” and the “Final Comp.” value [3, 14] was 99.99%. The “Result (decomposition)” value [3, 14] was “No”, the “Final Comp.” value [3, 15] was 99.98% and the “Result (decomposition)” value [3, 15] was “No”. For the same molecule, the “Final Comp.” value [3, 16] was 99.99%, the “Result (decomposition)” value [3, 16] was “No” and the “Final Comp.” value [3, 17] was 99.997%. For the same molecule, the “Result (decomposition)” value [3, 17] was “No”, the “Final Comp.” value [3, 18] was 99.997% and the “Result (decomposition)” value [3, 18] was “No”. For the same molecule, the “Final Comp.” value [3, 19] was 99.98%, the “Result (decomposition)” value [3, 19] was “No” and the “Final Comp.” value [3, 20] was 99.98%. For the same molecule, the “Result (decomposition)” value [3, 20] was “No”, the “Final Comp.” value [3, 21] was 99.99% and the “Result (decomposition)” value [3, 21] was “No”. The decomposition [3, 22] was “no decomposition”, the “% sevoflurane by gas chromatography” value [3, 22] was 99.99% and the decomposition [3, 23] was “no decomposition”. The “% sevoflurane by gas chromatography” value [3, 23] was 99.99%, the decomposition [3, 24] was “no decomposition” and the “% sevoflurane by gas chromatography” value [3, 24] was 99.99%. For the same molecule, the “water content of sevoflurane saturated with water” value [4] was 1235 ppm, the decomposition ([5]; 40 g Abbott Lot # 35-621 -DK-03 with 2 g Type 3A molecular sieve, dried, new Type III amber glass bottle, room temperature, 20 months) was “no evidence of any decomposition” and the “% sevoflurane by gas chromatography” value ([5]; 40 g Abbott Lot # 35-621 -DK-03 with 2 g Type 3A molecular sieve, dried, new Type III amber glass bottle, room temperature, 20 months, initial water 218 ppm, essentially zero after 16 hours) was 99.997%. The “% sevoflurane by gas chromatography” value [5, 25] was “greater than 99.99%”, the decomposition [5, 25] was “No decomposition” and the “% sevoflurane by gas chromatography” value [5, 26] was “greater than 99.99%”. For the same molecule, the decomposition [5, 26] was “no decomposition”.
